What all share (assay type): cell-based, human
In assay [1] the test system is HIF-1α. Briefly: Western blot analysis of HIF-1α protein expression under hypoxia. The settings on record: for HIF-1α protein levels: dose-dependent, maximum dose 3 µM (FIG. 4a). As for the experimental part:
Proteins were extracted from cultured cells using RIPA lysis buffer (Thermo Scientific, Waltham, MA, USA). The protein extracts were separated using SDS-PAGE and transferred to nitrocellulose membranes (Whatman, Maidstone, England). The membranes were blocked with 5% skim milk in Tris-buffered saline containing 0.1% Tween-20 for 1 hour at room temperature. After blocking, the membranes were incubated with specific primary antibodies overnight at 4°C, and then incubated with secondary antibodies for 1 hour at room temperature. Proteins were detected using the Enhanced Chemiluminescence Kit (Bio-Rad, Hercules, CA, USA) according to the manufacturer's instructions. Primary antibodies against HIF-1α (BD Biosciences, San Diego, CA, USA), VEGF (Santa Cruz Biotechnology, Santa Cruz, CA, USA), CXCR4 (Abcam, Cambridge, UK), CA9 (Abcam), DLL4 (Santa Cruz Biotechnology), NOTCH1 (Thermo Scientific), and β-actin (Santa Cruz Biotechnology) were used.
To determine the effect of the selected natural compounds on HIF-1α protein expression, Western blotting was performed on HEK293T cells. […] Accordingly, the effect of five compounds with HIF-1α inhibitory activity on DLL4 reporter activity in ECs was also investigated. […] Therefore, Compound #57 was selected as a potential inhibitor of HIF-1α and DLL4.
For orientation: In western blotting, separated proteins are transferred to a membrane and probed.

Assay [2] relates to HIF-1α. As to the kind of experiment: Immunofluorescence staining of intranuclear HIF-1α. The settings on record: A549 cells, hypoxia 4 h, immunofluorescence (FIG. 4b).
Description: Cells were seeded at a density of 2 × 10^4 - 3 × 10^4 cells/well on coverslips of 4-well plates and cultured for 24 h. For HIF-1α staining, A549 cells were treated with various compounds and incubated under normoxia or hypoxia conditions for 4 h. […] Next, the cells were fixed with 4% paraformaldehyde and permeabilized with 1% Triton X-100. The fixed cells were blocked with phosphate-buffered saline (PBS) containing 3% bovine serum albumin (BSA) and then incubated with primary antibodies overnight. After incubation, the cells were incubated with secondary antibodies for 1 hour and their nuclei were stained using DAPI. The stained cells were visualized using a confocal microscope (Leica TCS SP5 II Dichroic/CS, Leica, Germany).
Assay [3] has as its system DLL4. As to the kind of experiment: Immunofluorescence staining of DLL4 in endothelial cells. The note with it: hypoxia, immunofluorescence (FIG. 5b). As for the experimental part:
(§1) Cells were seeded at a density of 2 × 10^4 - 3 × 10^4 cells/well on coverslips of 4-well plates and cultured for 24 h. For HIF-1α staining, A549 cells were treated with various compounds and incubated under normoxia or hypoxia conditions for 4 h. For Ki-67 and DLL4 staining, EA.hy926 cells were treated with the same compounds and maintained under VEGF (20 ng/mL) treatment. Next, the cells were fixed with 4% paraformaldehyde and permeabilized with 1% Triton X-100. The fixed cells were blocked with phosphate-buffered saline (PBS) containing 3% bovine serum albumin (BSA) and then incubated with primary antibodies overnight. After incubation, the cells were incubated with secondary antibodies for 1 hour and their nuclei were stained using DAPI. The stained cells were visualized using a confocal microscope (Leica TCS SP5 II Dichroic/CS, Leica, Germany).

Another assay concerns EA.hy926 cells. Briefly: Wound-healing migration assay. As for the experimental part:
EA.hy926 cells were seeded at a density of 4 × 10^4 cells/well in 12-well plates and incubated for 24 hours. The cells were starved overnight in a serum-free medium and treated with mitomycin C (0.5 µg/mL) for 1 h. When confluent, a wound was made with a pipette tip and the cells were washed with a serum-free medium to remove cell debris. Next, the plates were treated with a conditioned medium collected from HEK293T cell cultures under hypoxia conditions treated with steppogenin. Wound closure was monitored and photographs were taken at 0 h and 8 h. Cell migration was measured by calculating the wound area between 0 h and 8 h.

The test system of assay [4] is DLL4. Briefly: DLL4-luciferase dual-luciferase assay in EA.hy926 cells with VEGF. How it is done:
(§2) To perform the HRE-luciferase assay, HEK293T cells were seeded in a 96-well plate at a density of 5×10^3 cells/well and cultured at 37°C. Next, cells were co-transfected with pGL3-HRE-luciferase plasmid and pRL-SV40 Renilla plasmid containing 5 copies of HRE of human VEGF gene using a vivamagic transfection reagent (Vivagen, Seongnam, Korea) (Kwon et al., 2015). After 24 h, cells were pretreated with various concentrations of natural compounds for 1 h and then incubated under hypoxia conditions for 24 h. To perform the DLL4-luciferase assay, EA.hy926 cells were seeded in 24-well plates at a density of 4 × 10^4 cells/well and cultured at 37 °C for 24 h. Cells were co-transfected with pGL3-DLL4 luciferase and pRL-SV40 Renilla plasmids using Lipofectamine 2000 (Invitrogen) and cultured at 37°C for 24 h. Next, the cells were incubated with various concentrations of natural compounds for 1 h and then incubated for 24 h in the presence or absence of VEGF (10 ng/mL). The luminescence of HRE- and DLL4-promoter activities was detected using a microplate reader and the Dual-Luciferase Assay Kit (Promega, Madison, WI, USA) according to the manufacturer's instructions. The luciferase activity of the natural compounds was normalized to Renilla luciferase activity.

The next assay deals with Ki-67. Briefly: Immunofluorescence staining of Ki-67 in endothelial cells. The settings on record: hypoxia. As for the experimental part: as §1
The test system of assay [5] is HIF-1α. Briefly: HRE-luciferase dual-luciferase assay (HIF-1α promoter reporter activity). As for the experimental part: as §2
To select potential HIF-1α inhibitors, the effects of 70 natural compounds were tested on HIF-1α promoter reporter activity using a dual-luciferase assay.

Regarding `O=C1C[C@@H](c2ccc(O)cc2O)Oc2cc(O)cc(O)c21` [steppogenin, (2S)-2-(2,4-dihydroxyphenyl)-5,7-dihydroxy-2,3-dihydrochromen-4-one], the HIF-1α protein levels result in the assay with HIF-1α [1] (A549, hypoxia) was “significantly inhibited”; with HIF-1α [1] (ARPE19, hypoxia), “significantly inhibited”; in the assay on HIF-1α [1] (HEK293T, hypoxia), “significantly inhibited”. For the same compound, the HIF-1α protein expression entry in the assay with HIF-1α [1] (HEK293T cells, hypoxia, screening of selected compounds (FIG. 2b)) was “inhibited”. Further, the “intranuclear expression of HIF-1α” value in the assay on HIF-1α [2] was “decreased”. For the same compound, the “DLL4 expression in ECs” value in the assay on DLL4 [3] is reported as “dramatically suppressed”. The wound closure entry in the assay on EA.hy926 cells (HUVECs, hypoxia, 0 h to 8 h (FIG. 5c)) is listed as “significantly reduced”. For the same compound, in the assay with EA.hy926 cells (hypoxia (FIG. 5c)), the “number of migrating cells” value is “significantly reduced”. Also, the DLL4-luciferase reporter activity result in the assay with DLL4 [4] (0.3 to 10.0 µM, VEGF-treated (FIG. 3e)) was “significantly reduced”. Also, the “DLL4 luciferase activity induced by VEGF” value in the assay on DLL4 [4] (ECs, VEGF treatment, screening (FIG. 2c)) is given as “significantly suppressed”. Further, the IC50 in the assay on DLL4 [4] (Homo sapiens, EA.hy 926, EA.hy926 cells (FIG. 3f)) is 8.46 ± 1.08 µM; in the assay with HIF-1α [5] (Homo sapiens, 72 h, HRE-luciferase reporter, hypoxia (FIG. 3d), read-out: half-maximal inhibitory concentration (IC50) for HIF-1α activity) it was 0.56 ± 0.043 µM. Further, in the assay with Ki-67, the “level of Ki-67, a cell proliferation marker” value was “decreased”. Besides, the HRE-luciferase reporter activity result in the assay on HIF-1α [5] (0.1 to 10 µM, dose-dependent, hypoxia (FIG. 3c)) is reported as “significantly inhibited”. Further, the “HRE-luciferase activity compared to the hypoxic vehicle (DMSO) control group” value with HIF-1α [5] (HEK293T cells, hypoxia 24 h, screening (FIG. 2a)) was under 70%.

Values taken from patent EP4574147A1, “COMPOSITION FOR PREVENTING, AMELIORATING, OR TREATING CANCER COMPRISING STEPPOGENIN AS ACTIVE INGREDIENT” (Kyungpook National University Industry-Academic Cooperation …, priority 2022, dated 2024).
